Data taken from ChEMBL document CHEMBL3352244, “Synthesis and biological activity of 5-(4-methoxyphenyl)-oxazole derivatives” (Bioorg Med Chem Lett, 2015).
≈ marks a conversion by molar mass, not a printed value.

Assays:
[1] = tested on: Caenorhabditis elegans; assay: Growth inhibition of adult Caenorhabditis elegans measured on day 3 by microscopy; assay type: functional; details: 72 h
[2] = tested on: Caenorhabditis elegans; assay: Inhibition of hatch of eggs newly spawned by adult Caenorhabditis elegans measured on day 3; assay type: functional; details: 72 h
[3] = target: T1, D-aspartate oxidase 3 (Caenorhabditis elegans, UniProt O01739); assay: Inhibition of Caenorhabditis elegans DDO3 incubated for 10 mins
T1 sequence (O01739 whole entry): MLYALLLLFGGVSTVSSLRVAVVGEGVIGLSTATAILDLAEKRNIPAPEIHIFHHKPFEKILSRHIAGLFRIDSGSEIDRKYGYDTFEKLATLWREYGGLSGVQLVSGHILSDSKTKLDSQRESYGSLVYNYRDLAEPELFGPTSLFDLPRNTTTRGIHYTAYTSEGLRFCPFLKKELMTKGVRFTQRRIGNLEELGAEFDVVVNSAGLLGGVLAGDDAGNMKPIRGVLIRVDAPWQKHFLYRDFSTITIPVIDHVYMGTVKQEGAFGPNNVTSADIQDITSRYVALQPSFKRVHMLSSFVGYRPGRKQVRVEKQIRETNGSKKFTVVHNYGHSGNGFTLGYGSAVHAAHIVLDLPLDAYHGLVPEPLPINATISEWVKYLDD

[4] = Cytotoxic activity against human HL60 cells after 48 hrs by WST8 assay; assay type: functional, cell-based; details: HL-60, 48 h
[5] = target: T2, D-amino-acid oxidase (Caenorhabditis elegans, UniProt Q95XG9); assay: Inhibition of Caenorhabditis elegans DAO incubated for 10 mins
T2 sequence (Q95XG9 whole entry): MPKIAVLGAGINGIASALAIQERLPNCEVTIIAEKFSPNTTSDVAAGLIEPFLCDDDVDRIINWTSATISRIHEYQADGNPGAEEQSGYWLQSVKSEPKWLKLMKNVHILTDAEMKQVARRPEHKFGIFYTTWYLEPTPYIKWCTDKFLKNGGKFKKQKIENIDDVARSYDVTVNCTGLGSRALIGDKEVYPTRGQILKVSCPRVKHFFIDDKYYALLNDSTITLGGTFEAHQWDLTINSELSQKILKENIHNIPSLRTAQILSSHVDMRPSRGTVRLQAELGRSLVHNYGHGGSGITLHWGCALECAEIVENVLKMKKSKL

[6] = tested on: Candida albicans; assay: Antimicrobial activity against Candida albicans incubated at 28 degC for 24 hrs; assay type: functional, organism-based
[7] = tested on: Aspergillus fumigatus; assay: Antimicrobial activity against Aspergillus fumigatus incubated at 28 degC for 24 hrs; assay type: functional, organism-based
[8] = tested on: Escherichia coli; assay: Antimicrobial activity against Escherichia coli incubated at 37 degC for 24 hrs; assay type: functional, organism-based
[9] = tested on: Plasmodium falciparum; assay: Antimalarial activity against Plasmodium falciparum K1 after 72 hrs by parasite LDH assay; assay type: functional, organism-based; details: K1, 72 h
[10] = tested on: Pyricularia oryzae; assay: Antimicrobial activity against Magnaporthe oryzae incubated at 28 degC for 48 hrs; assay type: functional, organism-based
[11] = tested on: Staphylococcus aureus; assay: Antimicrobial activity against Staphylococcus aureus incubated at 37 degC for 24 hrs; assay type: functional, organism-based
[12] = tested on: HeLa; assay: Cytotoxic activity against human HeLa cells after 48 hrs by WST8 assay; assay type: functional, cell-based
[13] = tested on: Caenorhabditis elegans; assay: Inhibition of hatch of eggs newly spawned by adult Caenorhabditis elegans at 17 uM measured on day 3; assay type: functional; details: 72 h

| Structure (SMILES) | MIC [1] [µM] | MIC [2] [µM] | also measured |
| --- | --- | --- | --- |
| COc1ccccc1-c1cnco1 | > 100 | > 100 |  |
| Oc1ccc(-c2cnco2)cc1 | > 100 | > 100 | EC50 [3]: > 100 µM; EC50 [4]: > 100 µM; EC50 [5]: > 100 µM; EC50 [6]: > 100 µM; EC50 [7]: > 100 µM; EC50 [8]: > 100 µM; EC50 [9]: > 100 µM; EC50 [10]: 15 µM; EC50 [11]: > 100 µM; EC50 [12]: 51 µM |
| COc1cccc(-c2cnco2)c1 | > 100 | > 100 |  |
| Cc1ccc(-c2cnco2)cc1 | > 100 | > 100 |  |
| c1ccc(-c2cnco2)cc1 | > 100 | > 100 |  |
| COc1ccc(-c2cncs2)cc1 | 50 (≈ 9.56 µg/mL) | > 100 |  |
| COC(=O)c1ccc(-c2cnco2)cc1 | > 100 | > 100 |  |
| COc1ccc(-c2cocn2)cc1 | > 100 | > 100 |  |
| N#Cc1ccc(-c2cnco2)cc1 | > 100 | 100 (≈ 17 µg/mL) |  |
| COc1ccc(-c2ncco2)cc1 | 100 (≈ 17.5 µg/mL) | > 100 |  |
| CN(C)c1ccc(-c2cnco2)cc1 | 50 (≈ 9.41 µg/mL) | > 100 |  |
| COc1ccc(-c2cnco2)cc1C(=O)O | > 100 | > 100 |  |
| CCOC(=O)c1ccc(-c2ncc(-c3ccc(OC)cc3)o2)cc1 | > 100 | > 100 |  |
| CC(=O)Oc1ccc(-c2cnco2)cc1 | > 100 | > 100 |  |
| COc1ccc(-c2c[nH]cn2)cc1 | > 100 | > 100 |  |
| O=C(O)c1ccc(-c2cnco2)cc1 | > 100 | > 100 |  |
| COc1ccc(-c2cnco2)cc1 | 34 (≈ 5.96 µg/mL) | 17 (≈ 2.98 µg/mL) | EC50 [3]: > 100 µM; EC50 [4]: > 100 µM; EC50 [5]: > 100 µM; EC50 [6]: > 100 µM; EC50 [7]: > 100 µM; EC50 [8]: > 100 µM; EC50 [9]: > 100 µM; inhibition at 17 µM [13]: 100%; EC50 [10]: 4 µM; EC50 [11]: > 100 µM; EC50 [12]: 30 µM |
| CCc1ccc(-c2cnco2)cc1 | > 100 | > 100 |  |
| COc1ccc(-c2cnc(-c3ccc(C(=O)O)cc3)o2)cc1 | > 100 | > 100 |  |
| COC(=O)c1cc(-c2cnco2)ccc1OC | > 100 | > 100 |  |
